Source: article PMC9234961 (Journal of Medicinal Chemistry, 2022)
Where two headings read alike, the source gives them in different places.

How the values were obtained:
[1] = biological target: kinases (468) (Homo sapiens, UniProt O00329); conditions: PIK3CD; 1000 nM
[2] = biological target: kinases (468) (Homo sapiens, UniProt O00750); conditions: PIK3C2B; 1000 nM
[3] = biological target: kinases (468) (Homo sapiens, UniProt O15111); conditions: IKK-alpha (CHUK); 1000 nM
[4] = biological target: kinases (468) (Homo sapiens, UniProt O15146); conditions: MUSK; 1000 nM
Sequence of kinases (468) (Homo sapiens, UniProt O15146) (O15146 24-869): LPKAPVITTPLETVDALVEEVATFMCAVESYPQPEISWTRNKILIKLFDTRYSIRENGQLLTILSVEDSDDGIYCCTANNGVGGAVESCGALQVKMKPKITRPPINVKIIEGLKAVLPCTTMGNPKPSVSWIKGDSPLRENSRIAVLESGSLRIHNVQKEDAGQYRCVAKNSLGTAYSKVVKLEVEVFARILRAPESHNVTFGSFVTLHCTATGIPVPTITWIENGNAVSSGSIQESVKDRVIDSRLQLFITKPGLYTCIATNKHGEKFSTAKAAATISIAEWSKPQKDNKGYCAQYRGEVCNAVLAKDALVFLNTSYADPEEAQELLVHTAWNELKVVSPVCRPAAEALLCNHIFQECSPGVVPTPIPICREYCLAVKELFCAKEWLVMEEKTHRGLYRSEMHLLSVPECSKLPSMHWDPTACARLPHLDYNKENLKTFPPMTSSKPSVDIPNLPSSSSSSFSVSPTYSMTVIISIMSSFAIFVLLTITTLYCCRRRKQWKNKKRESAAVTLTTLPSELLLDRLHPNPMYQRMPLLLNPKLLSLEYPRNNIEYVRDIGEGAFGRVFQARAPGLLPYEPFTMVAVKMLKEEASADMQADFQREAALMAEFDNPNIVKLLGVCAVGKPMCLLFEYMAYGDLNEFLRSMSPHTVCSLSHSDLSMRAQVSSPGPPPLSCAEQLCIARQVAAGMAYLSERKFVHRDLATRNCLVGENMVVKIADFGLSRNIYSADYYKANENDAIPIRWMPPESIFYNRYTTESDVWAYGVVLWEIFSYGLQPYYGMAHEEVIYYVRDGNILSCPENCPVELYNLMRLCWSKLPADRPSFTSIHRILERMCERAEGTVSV

[5] = biological target: kinases (468) (Homo sapiens, UniProt O75116); conditions: kinase ROCK2 (Entrez ROCK2); compound concentration 1000 nM
[6] = biological target: kinases (468) (Homo sapiens, UniProt P00519, F317L); conditions: 1000 nM
[7] = biological target: kinases (468) (Homo sapiens, UniProt P00519, M351T); conditions: ABL1(M351T)-phosphorylated; 1000 nM
[8] = biological target: kinases (468) (Homo sapiens, UniProt P00533); conditions: EGFR; 1000 nM
[9] = biological target: kinases (468) (Homo sapiens, UniProt P12931); conditions: kinase SRC (Entrez SRC); compound concentration 1000 nM
[10] = biological target: kinases (468) (Homo sapiens, UniProt P21709); conditions: EPHA1; 1000 nM
Sequence of kinases (468) (Homo sapiens, UniProt P21709) (P21709 26-976): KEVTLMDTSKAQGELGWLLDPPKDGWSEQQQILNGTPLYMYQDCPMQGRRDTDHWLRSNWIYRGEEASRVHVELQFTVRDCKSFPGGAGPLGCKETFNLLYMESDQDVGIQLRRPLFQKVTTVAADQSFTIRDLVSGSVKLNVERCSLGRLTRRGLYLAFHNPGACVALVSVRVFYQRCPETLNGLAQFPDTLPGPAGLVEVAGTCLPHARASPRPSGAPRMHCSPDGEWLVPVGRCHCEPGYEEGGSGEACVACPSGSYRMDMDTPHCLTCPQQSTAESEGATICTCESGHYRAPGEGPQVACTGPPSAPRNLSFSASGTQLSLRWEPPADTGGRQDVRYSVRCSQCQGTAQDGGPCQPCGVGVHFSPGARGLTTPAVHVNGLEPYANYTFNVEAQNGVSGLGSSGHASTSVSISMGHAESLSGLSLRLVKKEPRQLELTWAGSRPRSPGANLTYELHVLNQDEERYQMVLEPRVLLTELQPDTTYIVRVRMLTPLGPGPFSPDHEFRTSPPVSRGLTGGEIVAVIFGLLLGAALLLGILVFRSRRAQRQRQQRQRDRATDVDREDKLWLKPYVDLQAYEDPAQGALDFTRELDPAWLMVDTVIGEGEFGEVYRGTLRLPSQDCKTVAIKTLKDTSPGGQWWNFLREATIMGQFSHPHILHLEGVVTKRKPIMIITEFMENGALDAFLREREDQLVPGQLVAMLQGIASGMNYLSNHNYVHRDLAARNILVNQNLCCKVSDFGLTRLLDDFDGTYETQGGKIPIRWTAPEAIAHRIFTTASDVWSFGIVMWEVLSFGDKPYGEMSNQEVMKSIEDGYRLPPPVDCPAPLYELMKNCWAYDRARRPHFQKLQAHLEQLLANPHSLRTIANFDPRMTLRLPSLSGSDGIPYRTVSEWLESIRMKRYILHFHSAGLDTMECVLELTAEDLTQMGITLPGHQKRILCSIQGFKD

[11] = biological target: kinases (468) (Homo sapiens, UniProt P22455); conditions: FGFR4; 1000 nM
[12] = biological target: kinases (468) (Homo sapiens, UniProt P28482); conditions: ERK2 (MAPK1); 1000 nM
[13] = biological target: kinases (468) (Homo sapiens, UniProt P35968); conditions: kinase VEGFR2 (Entrez KDR); compound concentration 1000 nM
Sequence of kinases (468) (Homo sapiens, UniProt P35968) (P35968 20-1356): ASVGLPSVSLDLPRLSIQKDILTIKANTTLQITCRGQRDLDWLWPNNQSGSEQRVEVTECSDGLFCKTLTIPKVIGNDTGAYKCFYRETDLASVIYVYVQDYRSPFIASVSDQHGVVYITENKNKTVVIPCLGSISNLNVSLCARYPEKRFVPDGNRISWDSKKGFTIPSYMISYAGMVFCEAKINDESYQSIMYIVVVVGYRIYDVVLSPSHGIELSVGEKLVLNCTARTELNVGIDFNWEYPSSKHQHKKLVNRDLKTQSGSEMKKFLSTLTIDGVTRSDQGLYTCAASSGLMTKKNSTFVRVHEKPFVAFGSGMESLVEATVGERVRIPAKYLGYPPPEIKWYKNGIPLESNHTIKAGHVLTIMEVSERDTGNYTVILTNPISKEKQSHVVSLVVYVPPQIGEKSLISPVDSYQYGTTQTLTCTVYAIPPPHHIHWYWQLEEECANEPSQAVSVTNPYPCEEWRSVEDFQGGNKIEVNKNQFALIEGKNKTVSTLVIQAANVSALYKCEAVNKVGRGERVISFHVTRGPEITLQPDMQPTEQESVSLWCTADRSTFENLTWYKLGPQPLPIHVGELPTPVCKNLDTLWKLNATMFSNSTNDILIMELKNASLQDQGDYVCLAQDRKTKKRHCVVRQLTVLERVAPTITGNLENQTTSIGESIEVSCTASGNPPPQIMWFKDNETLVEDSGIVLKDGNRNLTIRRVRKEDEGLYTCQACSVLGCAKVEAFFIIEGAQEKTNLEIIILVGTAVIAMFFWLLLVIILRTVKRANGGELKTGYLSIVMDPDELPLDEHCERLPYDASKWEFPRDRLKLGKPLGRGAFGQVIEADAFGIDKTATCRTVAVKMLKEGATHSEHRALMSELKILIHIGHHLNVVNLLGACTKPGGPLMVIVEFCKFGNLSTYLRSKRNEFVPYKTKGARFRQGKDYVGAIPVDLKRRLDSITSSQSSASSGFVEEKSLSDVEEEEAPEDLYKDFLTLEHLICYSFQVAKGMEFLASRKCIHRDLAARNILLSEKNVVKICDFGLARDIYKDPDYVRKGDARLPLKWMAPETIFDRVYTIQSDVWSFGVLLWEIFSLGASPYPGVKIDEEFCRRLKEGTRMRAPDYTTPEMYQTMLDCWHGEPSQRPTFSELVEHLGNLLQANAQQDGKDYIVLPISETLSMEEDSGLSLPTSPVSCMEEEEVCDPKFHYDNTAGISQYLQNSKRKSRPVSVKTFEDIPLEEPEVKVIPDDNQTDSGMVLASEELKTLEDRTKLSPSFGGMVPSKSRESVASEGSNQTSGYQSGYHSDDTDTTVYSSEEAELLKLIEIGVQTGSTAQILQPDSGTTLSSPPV

[14] = biological target: kinases (468) (Homo sapiens, UniProt P42345); conditions: MTOR; 1000 nM
[15] = biological target: kinases (468) (Homo sapiens, UniProt P49840); conditions: GSK3A; 1000 nM
[16] = biological target: kinases (468) (Homo sapiens, UniProt P53779); conditions: JNK3 (MAPK10); 1000 nM
Sequence of kinases (468) (Homo sapiens, UniProt P53779) (P53779 whole entry): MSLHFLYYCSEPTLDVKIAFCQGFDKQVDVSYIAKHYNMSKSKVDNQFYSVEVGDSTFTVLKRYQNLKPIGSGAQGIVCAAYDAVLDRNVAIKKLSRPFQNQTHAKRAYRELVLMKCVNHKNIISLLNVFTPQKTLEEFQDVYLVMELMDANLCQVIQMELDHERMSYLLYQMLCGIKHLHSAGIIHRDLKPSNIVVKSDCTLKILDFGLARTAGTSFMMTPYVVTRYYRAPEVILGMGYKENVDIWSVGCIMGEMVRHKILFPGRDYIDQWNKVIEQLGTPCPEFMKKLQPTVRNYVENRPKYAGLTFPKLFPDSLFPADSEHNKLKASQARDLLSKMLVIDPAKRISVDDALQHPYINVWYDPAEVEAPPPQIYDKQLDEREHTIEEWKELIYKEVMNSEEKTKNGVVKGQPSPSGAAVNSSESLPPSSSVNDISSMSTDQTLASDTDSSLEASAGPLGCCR

[17] = biological target: kinases (468) (Homo sapiens, UniProt Q02156); conditions: PRKCE; 1000 nM
Sequence of kinases (468) (Homo sapiens, UniProt Q02156) (Q02156 whole entry): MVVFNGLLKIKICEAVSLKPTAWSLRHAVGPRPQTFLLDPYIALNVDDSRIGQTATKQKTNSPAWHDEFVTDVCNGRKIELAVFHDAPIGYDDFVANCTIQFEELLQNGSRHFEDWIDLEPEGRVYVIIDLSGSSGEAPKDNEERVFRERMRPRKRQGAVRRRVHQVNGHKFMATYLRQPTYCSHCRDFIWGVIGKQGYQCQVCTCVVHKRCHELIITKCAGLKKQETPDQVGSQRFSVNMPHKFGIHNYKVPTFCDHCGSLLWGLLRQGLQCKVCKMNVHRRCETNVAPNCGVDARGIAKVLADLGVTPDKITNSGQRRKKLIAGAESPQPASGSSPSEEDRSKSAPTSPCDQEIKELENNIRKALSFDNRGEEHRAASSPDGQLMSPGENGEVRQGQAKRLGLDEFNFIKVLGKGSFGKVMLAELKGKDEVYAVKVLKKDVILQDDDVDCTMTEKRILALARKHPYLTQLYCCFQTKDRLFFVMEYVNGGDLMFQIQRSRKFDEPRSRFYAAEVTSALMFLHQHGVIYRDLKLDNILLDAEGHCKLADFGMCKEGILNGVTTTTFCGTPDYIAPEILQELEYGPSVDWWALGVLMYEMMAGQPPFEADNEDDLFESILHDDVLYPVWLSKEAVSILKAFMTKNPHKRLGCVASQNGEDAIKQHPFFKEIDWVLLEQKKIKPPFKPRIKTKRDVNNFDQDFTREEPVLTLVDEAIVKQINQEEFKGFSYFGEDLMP

[18] = biological target: kinases (468) (Homo sapiens, UniProt Q02779); conditions: MLK2 (MAP3K10); 1000 nM
[19] = biological target: kinases (468) (Homo sapiens, UniProt Q04912); conditions: MST1R; 1000 nM
[20] = biological target: kinases (468) (Homo sapiens, UniProt Q06187); conditions: BTK; 1000 nM
[21] = biological target: kinases (468) (Homo sapiens, UniProt Q08881); conditions: ITK; 1000 nM
[22] = biological target: kinases (468) (Homo sapiens, UniProt Q13705); conditions: ACVR2B; 1000 nM
[23] = biological target: kinases (468) (Homo sapiens, UniProt Q13882); conditions: BRK (PTK6); 1000 nM
[24] = biological target: kinases (468) (Homo sapiens, UniProt Q15349); conditions: compound concentration 1000 nM
Sequence of kinases (468) (Homo sapiens, UniProt Q15349) (Q15349 whole entry): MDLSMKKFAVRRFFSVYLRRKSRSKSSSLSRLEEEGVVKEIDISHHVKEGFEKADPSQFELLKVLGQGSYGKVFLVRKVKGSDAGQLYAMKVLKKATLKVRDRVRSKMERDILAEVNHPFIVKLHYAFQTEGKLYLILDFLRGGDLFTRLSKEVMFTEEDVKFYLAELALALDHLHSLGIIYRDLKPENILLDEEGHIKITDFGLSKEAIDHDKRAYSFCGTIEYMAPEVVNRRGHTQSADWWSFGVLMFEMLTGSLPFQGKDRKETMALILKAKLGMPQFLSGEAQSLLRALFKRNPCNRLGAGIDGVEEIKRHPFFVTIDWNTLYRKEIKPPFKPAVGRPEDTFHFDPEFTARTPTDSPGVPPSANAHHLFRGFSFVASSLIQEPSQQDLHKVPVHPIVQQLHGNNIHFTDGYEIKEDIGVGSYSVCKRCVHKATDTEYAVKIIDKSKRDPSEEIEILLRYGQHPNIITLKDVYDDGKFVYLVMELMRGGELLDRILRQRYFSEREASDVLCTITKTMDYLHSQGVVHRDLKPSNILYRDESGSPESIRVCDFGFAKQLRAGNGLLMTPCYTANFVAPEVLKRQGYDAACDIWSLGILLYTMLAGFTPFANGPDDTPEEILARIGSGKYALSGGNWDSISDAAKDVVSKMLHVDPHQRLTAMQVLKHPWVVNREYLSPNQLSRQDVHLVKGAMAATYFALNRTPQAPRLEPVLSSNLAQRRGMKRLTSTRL

[25] = biological target: kinases (468) (Homo sapiens, UniProt Q16584); conditions: MLK3 (MAP3K11); 1000 nM
[26] = biological target: kinases (468) (Homo sapiens, UniProt Q6PHR2); conditions: kinase ULK3 (Entrez ULK3); compound concentration 1000 nM
[27] = biological target: kinases (468) (Homo sapiens, UniProt Q8IWQ3); conditions: BRSK2; 1000 nM
[28] = biological target: kinases (468) (Homo sapiens, UniProt Q8N568); conditions: DCAMKL2 (DCLK2); 1000 nM
[29] = biological target: kinases (468) (Homo sapiens, UniProt Q8TBX8); conditions: PIP5K2C (PIP4K2C); 1000 nM
[30] = biological target: kinases (468) (Homo sapiens, UniProt Q9H4B4); conditions: PLK3; 1000 nM
[31] = biological target: kinases (468) (Homo sapiens, UniProt Q9HBY8); conditions: kinase SGK2 (Entrez SGK2); compound concentration 1000 nM
[32] = biological target: kinases (468) (Homo sapiens, UniProt Q9P1W9); conditions: PIM2; 1000 nM
[33] = biological target: kinases (468) (Homo sapiens, UniProt Q9UQ88); conditions: CDC2L2; 1000 nM
[34] = biological target: kinases (468) (Homo sapiens, UniProt Q9UQM7); conditions: CAMK2A; 1000 nM

How did the “Percent Control” value [1] turn out when `C[C@H]1C[C@@H](O)CN(c2ncc(Cl)c(Nc3ccc4c(c3)c3c(c(=O)n4C)OCC(F)(F)[C@H](C4CC4)N3)n2)C1` [CCT373566_9A] was run?
The value was 90%.

What about the “Percent Control” value [2] of the same compound?
The value was 100%.

And the “Percent Control” value [3]?
The value was 99%.

And the “Percent Control” value [4]?
The value was 100%.

And the “Percent Control” value [5]?
The value was 94%.

And the “Percent Control” value ([6]; ABL1(F317L)-nonphosphorylated)?
The value was 100%.

And the “Percent Control” value ([6]; ABL1(F317L)-phosphorylated)?
The value was 93%.

What about the “Percent Control” value [7] of the same compound?
The value was 90%.

And the “Percent Control” value [8]?
Its value is 100%.

And the “Percent Control” value [9]?
Its value is 100%.

What about the “Percent Control” value [10] of the same compound?
Its value is 100%.

And the “Percent Control” value [11]?
The value was 100%.

And the “Percent Control” value [12]?
The value was 96%.

What about the “Percent Control” value [13] of the same compound?
The value was 95%.

What about the “Percent Control” value [14] of the same compound?
Its value is 87%.

What about the “Percent Control” value [15] of the same compound?
The value was 95%.

And the “Percent Control” value [16]?
Its value is 87%.

And the “Percent Control” value [17]?
The value was 98%.

What about the “Percent Control” value [18] of the same compound?
The value was 100%.

What about the “Percent Control” value [19] of the same compound?
Its value is 91%.

What about the “Percent Control” value [20] of the same compound?
The value was 100%.

And the “Percent Control” value [21]?
The value was 100%.

What about the “Percent Control” value [22] of the same compound?
The value was 84%.

And the “Percent Control” value [23]?
The value was 100%.

And the “Percent Control” value ([24]; kinase RSK3(Kin.Dom.1-N-terminal) (Entrez RPS6KA2))?
Its value is 100%.

And the “Percent Control” value ([24]; kinase RSK3(Kin.Dom.2-C-terminal) (Entrez RPS6KA2))?
Its value is 83%.

And the “Percent Control” value [25]?
The value was 100%.

And the “Percent Control” value [26]?
Its value is 93%.

And the “Percent Control” value [27]?
Its value is 100%.

What about the “Percent Control” value [28] of the same compound?
Its value is 100%.

What about the “Percent Control” value [29] of the same compound?
The value was 82%.

And the “Percent Control” value [30]?
Its value is 78%.

What about the “Percent Control” value [31] of the same compound?
Its value is 86%.

And the “Percent Control” value [32]?
Its value is 98%.

And the “Percent Control” value [33]?
The value was 97%.

What about the “Percent Control” value [34] of the same compound?
The value was 79%.
